Measurements published in patent US20240400560A1, “BICYCLIC HETEROCYCLIC DERIVATIVE HAVING VIRAL GROWTH INHIBITORY ACTIVITY AND PHARMACEUTICAL COMPOSITION CONTAINING SAME” (Shionogi & Co., Ltd., priority 2021, published 2024).

Experiments:
SARS-CoV-2 [1] = experiment: Inhibitory activity of cytopathic effect (CPE) in Vero E6/TMPRSS2 cells; type: cell-based
SARS-CoV-2 3CL protease = SARS-CoV-2 3CL protease (Severe acute respiratory syndrome coronavirus 2, UniProt P0DTD1); experiment: Inhibitory activity test against SARS-CoV-2 3CL proteases; type: biochemical; conditions: read-out: IC50 (50% SARS-CoV-2 3CL protease inhibitory concentration)
SARS-CoV-2 [2] = experiment: Inhibitory activity of cytopathic effect (CPE) in HEK293T/ACE2-TMPRSS2 cells; type: cell-based; conditions: Severe acute respiratory syndrome coronavirus 2, HEK-293T, 72 h, HEK293T/ACE2-TMPRSS2 cells
[3] = Severe acute respiratory syndrome coronavirus 2, VeroE6/TMPRSS2, 50% SARS-CoV-2 infected cell death inhibitory concentration, class symbols
[4] = Severe acute respiratory syndrome coronavirus 2, VeroE6/TMPRSS2, 72 h, 50% SARS-CoV-2 infected cell death inhibitory concentration, CellTiter-Glo 2.0 after 3 days culture
[5] = cultured 3 days, CellTiter-Glo 2.0 luminescence, read-out: EC50 (50% SARS-CoV-2 infected cell death inhibitory concentration)

`COc1cc(-c2cc(C(=O)NCCO)ccc2Cl)cc2c1c(=O)n(-c1cncc(C)c1)c(=O)n2Cc1ccc(F)c(C#N)c1` [Compound I-0194] gave an EC50 (SARS-CoV-2 [1]; [3]) of 1 to 10 µM and an IC50 (SARS-CoV-2 3CL protease) of under 0.1 µM.

For `COc1cc(-c2cc(C(N)=O)ccc2Cl)cc2c1c(=O)n(Cc1ncn(C)n1)c(=O)n2Cc1cc(F)c(F)c(F)c1` [Compound I-0034], the EC50 (SARS-CoV-2 [1]; [3]) was 1 to 10 µM and the IC50 (SARS-CoV-2 3CL protease) was under 0.1 µM.

`COc1cc(-c2cc(C(C)=O)ccc2Cl)cc2c1c(=O)n(Cc1ncn(C)n1)c(=O)n2Cc1cc(F)c(F)c(F)c1` [Compound I-0116] showed an EC50 (SARS-CoV-2 [1]; [4]) of 1.75 µM and an IC50 (SARS-CoV-2 3CL protease) of 0.012 µM.

For `CNC(=O)c1ccc(Cl)c(-c2ccc3c(=O)n(Cc4ccc[nH]c4=O)c(=O)n(Cc4cc(F)c(F)c(F)c4)c3c2)c1` [Compound I-0285], the EC50 (SARS-CoV-2 [1]; [3]) was 1 to 10 µM and the IC50 (SARS-CoV-2 3CL protease) was under 0.1 µM.

In the case of `COc1cc(-c2cc3cn[nH]c3cc2Cl)cc2c1c(=O)n(-c1cncc(C)c1)c(=O)n2Cc1cc(F)c(F)c(C#N)c1` [Compound I-0166], the EC50 (SARS-CoV-2 [1]; [3]) is reported as under 1 µM and the IC50 (SARS-CoV-2 3CL protease) is reported as under 0.1 µM.

`Cn1cnc(Cn2c(=O)c3c(F)cc(-c4cc5c(cc4Cl)NC(=O)C5)cc3n(Cc3cc(F)c(F)cc3F)c2=O)n1` [Compound I-0280] gave an EC50 (SARS-CoV-2 [1]; [3]) of 1 to 10 µM and an IC50 (SARS-CoV-2 3CL protease) of under 0.1 µM.

`COc1cc(-c2cc(C#N)ccc2Cl)cc2c1c(=O)n(-c1cncc(Cl)c1)c(=O)n2Cc1ccc(F)c(C#N)c1` [Compound I-0033] showed an EC50 (SARS-CoV-2 [1]; [4]) of 0.217 µM and an IC50 (SARS-CoV-2 3CL protease) of 0.013 µM.

`Cc1cncc(-n2c(=O)c3c(F)cc(-c4cc(C(N)=O)ccc4Cl)cc3n(Cc3cc(F)c(F)cc3F)c2=O)c1` [Compound I-0055] was tested, and the EC50 (SARS-CoV-2 [1]; [3]) was under 1 µM and the IC50 (SARS-CoV-2 3CL protease) was under 0.1 µM.

With `Cc1cncc(-n2c(=O)c3c(Cl)cc(-c4cc5cn[nH]c5cc4Cl)cc3n(Cc3ccc(F)c(C#N)c3)c2=O)c1` [Compound I-0011] the EC50 (SARS-CoV-2 [1]; [3]) was under 1 µM and the IC50 (SARS-CoV-2 3CL protease) was under 0.1 µM.

Molecule `CC(=O)c1ccc(Cl)c(-c2ccc3c(=O)n(Cc4ccc[nH]c4=O)c(=O)n(Cc4cc(F)c(F)c(F)c4)c3c2)c1` [Compound I-0284] has an EC50 (SARS-CoV-2 [1]; [3]) of 1 to 10 µM and an IC50 (SARS-CoV-2 3CL protease) of under 0.1 µM.

`COc1cc(-c2cc3cn[nH]c3cc2Cl)cc2c1c(=O)n(Cc1ncn(C)n1)c(=O)n2Cc1cc(F)c(F)c(F)c1F` [Compound I-0048] was tested, and the EC50 (SARS-CoV-2 [1]; [4]) was 0.537 µM and the IC50 (SARS-CoV-2 3CL protease) was 0.011 µM.

`COc1cc(-c2cc(C(=O)NCCN(C)C)ccc2Cl)cc2c1c(=O)n(-c1cncc(C)c1)c(=O)n2Cc1ccc(F)c(C#N)c1` [Compound I-0190] was tested, and the EC50 (SARS-CoV-2 [1]; [3]) was 1 to 10 µM and the IC50 (SARS-CoV-2 3CL protease) was under 0.1 µM.

With `COc1cc(-c2cc3cn[nH]c3cc2Cl)cc2c1c(=O)n(-c1cncc(C)c1)c(=O)n2Cc1cc(C#N)c(F)cc1C` [Compound I-0163] the EC50 (SARS-CoV-2 [1]; [4]) was 0.273 µM and the IC50 (SARS-CoV-2 3CL protease) was 0.0011 µM.

For `COc1cc(-c2cc(C(N)=O)ccc2Cl)cc2c1c(=O)n(-c1cncc(C)c1)c(=O)n2Cc1ccc(F)c(C#N)c1` [Compound I-0029], the EC50 (SARS-CoV-2 [1]; [4]) was 49.8 µM and the IC50 (SARS-CoV-2 3CL protease) was 0.0078 µM.

Work on `COc1cc(-c2cc(CO)ccc2Cl)cc2c1c(=O)n(-c1cncc(C)c1)c(=O)n2Cc1ccc(F)c(C#N)c1` [Compound I-0031] yielded an EC50 (SARS-CoV-2 [1]; [3]) of under 1 µM and an IC50 (SARS-CoV-2 3CL protease) of under 0.1 µM.

In the case of `Cc1cncc(-n2c(=O)c3c(F)cc(-c4cc(C(N)=O)ccc4Cl)cc3n(Cc3cc(F)c(F)c(F)c3)c2=O)c1` [Compound I-0073], the EC50 (SARS-CoV-2 [1]; [3]) is reported as under 1 µM and the IC50 (SARS-CoV-2 3CL protease) is reported as under 0.1 µM.

`COc1cc(-c2cc3c(cc2Cl)NC(=O)C3)cc2c1c(=O)n(Cc1ncn(C)n1)c(=O)n2Cc1cc(Cl)c(F)cc1F` [Compound I-0266] showed an EC50 (SARS-CoV-2 [1]; [3]) of under 1 µM and an IC50 (SARS-CoV-2 3CL protease) of under 0.1 µM.

In the case of `COc1cc(-c2cc3cn[nH]c3cc2Cl)cc2c1c(=O)n(-c1cncc(C)c1)c(=O)n2Cc1cc(C#N)ccc1Cl` [Compound I-0170], the EC50 (SARS-CoV-2 [1]; [3]) is reported as under 1 µM and the IC50 (SARS-CoV-2 3CL protease) is reported as under 0.1 µM.

`COc1cc(-c2cc(C#N)ccc2Cl)cc2c1c(=O)n(Cc1ncn(C)n1)c(=O)n2Cc1cc(F)c(F)c(F)c1` [Compound I-0035] was tested, and the EC50 (SARS-CoV-2 [1]; [4]) was 0.363 µM and the IC50 (SARS-CoV-2 3CL protease) was 0.025 µM.

Work on `Cc1cncc(-n2c(=O)c3c(F)cc(-c4cc(CO)ccc4Cl)cc3n(Cc3cc(F)c(F)c(F)c3)c2=O)c1` [Compound I-0052] yielded an EC50 (SARS-CoV-2 [1]; [3]) of under 1 µM and an IC50 (SARS-CoV-2 3CL protease) of under 0.1 µM.

For `COc1cc(-c2cc3c(cc2Cl)NC(=O)C3)cc2c1c(=O)n(Cc1ncn(C)n1)c(=O)n2Cc1cc(F)c(F)c(Cl)c1` [Compound I-0263], the EC50 (SARS-CoV-2 [1]; [4]) was 0.736 µM and the IC50 (SARS-CoV-2 3CL protease) was 0.00099 µM.

With `Cc1cncc(-n2c(=O)c3c(Cl)cc(-c4cc(C(N)=O)ccc4Cl)cc3n(Cc3cc(F)c(F)c(F)c3)c2=O)c1` [Compound I-0007] the EC50 (SARS-CoV-2 [1]; [4]) was 1.14 µM and the IC50 (SARS-CoV-2 3CL protease) was 0.019 µM.

For `COCCNC(=O)c1ccc(Cl)c(-c2cc(OC)c3c(=O)n(-c4cncc(C)c4)c(=O)n(Cc4ccc(F)c(C#N)c4)c3c2)c1` [Compound I-0195], the EC50 (SARS-CoV-2 [1]; [3]) was 1 to 10 µM and the IC50 (SARS-CoV-2 3CL protease) was under 0.1 µM.

In the case of `COc1cc(-c2cc(C(=O)N3CCN(C)CC3)ccc2Cl)cc2c1c(=O)n(-c1cncc(C)c1)c(=O)n2Cc1ccc(F)c(C#N)c1` [Compound I-0208], the EC50 (SARS-CoV-2 [1]; [3]) is reported as 1 to 10 µM and the IC50 (SARS-CoV-2 3CL protease) is reported as under 0.1 µM.

With `COc1cc(-c2cc3c(cc2Cl)NC(=O)C3)cc2c1c(=O)n(-c1cncc(Cl)c1)c(=O)n2Cc1cc(F)c(F)c(F)c1` [Compound I-0065] the EC50 (SARS-CoV-2 [1]; [3]) was under 1 µM and the IC50 (SARS-CoV-2 3CL protease) was under 0.1 µM.

Molecule `Cn1cnc(Cn2c(=O)c3c(Cl)cc(-c4cc5cn[nH]c5cc4Cl)cc3n(Cc3cc(F)c(F)c(F)c3)c2=O)n1` [Compound I-0015] has an EC50 (SARS-CoV-2 [1]; [3]) of under 1 µM and an IC50 (SARS-CoV-2 3CL protease) of under 0.1 µM.

`COc1cc(-c2cc3c(cc2Cl)NC(=O)C3)cc2c1c(=O)n(Cc1ncn(C)n1)c(=O)n2Cc1cc(F)c(F)c(F)c1` [Compound I-0139] was tested, and the EC50 (SARS-CoV-2 [1]; [4]) was 3.62 µM and the IC50 (SARS-CoV-2 3CL protease) was 0.0045 µM.

`COc1cc(-c2cc(C(N)=O)ccc2Cl)cc2c1c(=O)n(-c1cncc(C)c1)c(=O)n2Cc1cc(F)c(F)c(F)c1` [Compound I-0067] was tested, and the EC50 (SARS-CoV-2 [1]; [3]) was under 1 µM and the IC50 (SARS-CoV-2 3CL protease) was under 0.1 µM.

`COc1cc(-c2cc3c(cc2Cl)NC(=O)C3)cc2c1c(=O)n(-c1cncc(Cl)c1)c(=O)n2Cc1ccc(F)c(C#N)c1` [Compound I-0028] was tested, and the EC50 (SARS-CoV-2 [1]; [4]) was 10.1 µM and the IC50 (SARS-CoV-2 3CL protease) was 0.0075 µM.

In the case of `COc1cc(-c2cc(C#N)ccc2Cl)cc2c1c(=O)n(-c1cncc(C)c1)c(=O)n2Cc1ccc(F)c(C#N)c1` [Compound I-0027], the EC50 (SARS-CoV-2 [1]; [3]) is reported as under 1 µM and the IC50 (SARS-CoV-2 3CL protease) is reported as under 0.1 µM.

Molecule `COc1cc(-c2cc(C#N)ccc2Cl)cc2c1c(=O)n(Cc1ncn(C)n1)c(=O)n2Cc1cc(F)c(F)c(F)c1F` [Compound I-0053] has an EC50 (SARS-CoV-2 [1]; [4]) of 0.497 µM and an IC50 (SARS-CoV-2 3CL protease) of 0.03 µM.

`Cn1cnc(Cn2c(=O)c3c(Cl)cc(-c4cc5c(cc4Cl)NC(=O)C5)cc3n(Cc3cc(F)c(F)c(F)c3)c2=O)n1` [Compound I-0003] gave an EC50 (SARS-CoV-2 [1]; [4]) of 0.692 µM and an IC50 (SARS-CoV-2 3CL protease) of 0.0086 µM.

Molecule `COc1cc(-c2cc3cn[nH]c3cc2Cl)cc2c1c(=O)n(Cc1ncn(C)n1)c(=O)n2Cc1cc(F)c(F)c(Cl)c1` [Compound I-0264] has an EC50 (SARS-CoV-2 [1]; [4]) of 0.349 µM and an IC50 (SARS-CoV-2 3CL protease) of 0.0026 µM.

Molecule `COc1cc(-c2cc3c(cc2Cl)NC(=O)C3)cc2c1c(=O)n(-c1cncc(C)c1)c(=O)n2Cc1cc(C#N)c(F)cc1C` [Compound I-0160] has an EC50 (SARS-CoV-2 [1]; [4]) of 0.67 µM and an IC50 (SARS-CoV-2 3CL protease) of 0.00073 µM.

With `COc1cc(-c2cc(C(=O)N(C)C)ccc2Cl)cc2c1c(=O)n(-c1cncc(C)c1)c(=O)n2Cc1ccc(F)c(C#N)c1` [Compound I-0200] the EC50 (SARS-CoV-2 [1]; [3]) was 1 to 10 µM and the IC50 (SARS-CoV-2 3CL protease) was under 0.1 µM.

Work on `Cn1cnc(Cn2c(=O)c3c(cc(-c4cc(C#N)ccc4Cl)n4c(=O)[nH]nc34)n(Cc3cc(F)c(F)c(F)c3)c2=O)n1` [Compound I-0647] yielded an EC50 (SARS-CoV-2 [2]; 50% SARS-CoV-2 infected cell death inhibitory concentration, CellTiter-Glo 2.0 after 3 days culture, read-out: EC50) of 13.9 µM and an IC50 (SARS-CoV-2 3CL protease) of 0.0057 µM.

`[2H]C([2H])([2H])O[C@@H]1CCN(c2cc3c(c(OC)n2)c(=O)n(-c2cncc(OC(F)F)c2)c(=O)n3-c2ccc(F)c(Cl)c2)C1` [Compound I-0971] gave an EC50 (SARS-CoV-2 [2]; [5]) of under 0.1 µM and an IC50 (SARS-CoV-2 3CL protease) of under 0.1 µM.

Work on `COc1nc(N2CCC(F)(F)C2)cc2c1c(=O)n(-c1cncc(C#N)c1)c(=O)n2-c1ccc(F)c(F)c1` [Compound I-1057] yielded an EC50 (SARS-CoV-2 [2]; [5]) of under 0.1 µM and an IC50 (SARS-CoV-2 3CL protease) of under 0.1 µM.
